Values quoted from earlier work, collected in US20060251690A1, “Skin enrichment using CoQ10 as the delivery system” (Zymes, LLC, priority 2005, published 2006).
Read-outs that look alike come from different tables or passages of the source.

Experiments:
[1] = after chronic topical use, combined with other fat and water soluble ingredients
[2] = not given; remark: listed apart in the source
[3] = human skin (in vitro)
[4] = not given; remark: listed apart in the source

COC1=C(OC)C(=O)C(C/C=C(\C)CC/C=C(\C)CC/C=C(\C)CC/C=C(\C)CC/C=C(\C)CC/C=C(\C)CC/C=C(\C)CC/C=C(\C)CC/C=C(\C)CCC=C(C)C)=C(C)C1=O [CoQ10, 2,3 dimethoxy-5 methyl-6 decaprenyl benzoquinone]
half life: > 30 h

COc1ccc(-c2ccc3cc(C(=O)O)ccc3c2)cc1C12CC3CC(CC(C3)C1)C2 [adapalene]
absorption of adapalene [1]: < 0.25 ng/mL | solubility in polar solvents such as ethanol ([2]; ethanol): only sparingly soluble | solubility in water ([2]; water): virtually insoluble

O=C(O)CCCCCCCC(=O)O [azelaic acid]
applied dose found in the epidermis and dermis [3]: Up to 10% | half-life after application [4]: 12 h

O=C1O[C@H]([C@@H](O)CO)C(O)=C1O [vitamin C]
half life (autoxidation named as cause): 0.5 h
